Patent US20230235282A1, “SERUM-FREE INDUCTION METHOD FOR SENSORY NEURON CELL” (IREGENE THERAPEUTICS LTD, priority 2020, published 2023)
Where two headings read alike, the source gives them in different places.

Assays:
[1] = tested on: sensory nerve precursor cells from CD34+-derived cells; test: Induction of sensory nerve precursor cells with different small molecules (morphology, Q-PCR of precursor markers); type: cell-based, human; details: 5 μM in induction medium
Experimental: When the induced pluripotent stem cells reached 70% coverage, they were digested with 0.05% trypsin/EDTA for 5 min at 37° C., and the cell digestion was terminated by using DMEM. After the cells were washed and centrifuged, they were re-seeded in a T25 culture plate at 2×10^5 per flask, and cultured in a sensory neuron induction medium at 37° C., 5% CO2 (Panasonic, MCO-18AC) for 10 days until the formation of neural plate, which confirmed the formation of sensory nerve precursor cells.
All data were analyzed by delta-Ct method.
(5.2) Taking CD34+-derived cells as an example, different small molecules (5 μM RepSox, 5 μM SB525334 and 5 μM TEW-7197 molecules) were used to replace the LY2157299 in the sensory neuron induction medium N2GS212I-2 in Section (3.1) of Example 3; steps in Section (3.1) of Example 3 were repeated to observe the effects of different small molecules on the induced sensory nerve precursor cells.
(5.3) Taking CD34+-derived cells as an example, steps of Example 4 (4.3) were repeated by using the sensory nerve precursor cells obtained in (5.2), and the effects of different small molecules on the expression of neuronal precursor cell markers during the formation of sensory nerve precursor cells were observed. As shown in the figures, the different inhibitor molecules were not only able to form neuron precursor cells (forming a neural plate structure shown in the figure), but also able to increase the expressions of neuron precursor cell markers.

[2] = tested on: sensory neuron cells from CD34+-derived induced pluripotent stem cells; test: Morphology / axon formation of induced sensory neuron cells; type: cell-based, human; details: for axon formation: low (3 μM), medium (6 μM) and high (10 μM) concentration
Experimental: After obtaining the above-mentioned various sensory nerve precursor cells, the medium was removed, and cells were washed with DPBS, and then treated with 0.05% trypsin/EDTA at 37° C. for 5 minutes, and then cell digestion was terminated with DMEM. After the cells were washed and centrifuged, the cells were re-seeded in a T25 culture flask at 1-5×10^5 per plate, and the sensory nerve precursor cells were induced to differentiate and expand into mature sensory neurons by using sensory neuron cell medium. The conditions for cell culture were 37° C., 5% CO2.

[3] = Osmotic pressure of the culture system by freezing point osmometer; type: physicochemical
Experimental: In order to observe the effect of different concentrations of glycine-glutamine monohydrate on osmotic pressure, the effect of different concentrations of glycine-glutamine monohydrate on the osmotic pressure of culture system was detected by using an automatic freezing point osmometer (FM-8P, Shanghai Medical University Instrument Co., Ltd.), and specific operations were performed according to the product manual (FM-8P, Shanghai Medical University Instrument Co., Ltd.).

[4] = tested on: sensory neuron cells from CD34+-derived induced pluripotent stem cells; test: Q-PCR of marker genes in induced sensory neuron cells
Experimental: Total RNA from different sensory neuron cells was extracted by RNeasy Mini or Micro Kit (QIAGEN), and cDNA was synthesized from 1 mg RNA by SuperScript III First-Strand Synthesis System (Invitrogen). SYBR Premix Ex Taq (TaKaRa) and Thermal Cycler Dice Real Time System (TaKaRa) were used for labeling and reaction of Quantitative PCR, and beta-Actin was used as internal control. All data were analyzed by delta-Ct method. Triplicates were used for each group of experiments, and statistics were performed with ANOVA.

sodium ion channel 1.7 = molecular target: T1, sodium ion channel 1.7 (Homo sapiens, UniProt Q15858); test: MEA spontaneous discharge after PF-05089771; type: cell-based; details: for electrophysiological strength of sodium ion channels of induced cells: various concentrations in induction/culture medium, after 1 μM PF-05089771, fibroblast-derived
T1 construct: endogenous in cells; host or cells: sensory neurons induced from human fibroblast-derived iPSCs
T1 sequence (Q15858 whole entry): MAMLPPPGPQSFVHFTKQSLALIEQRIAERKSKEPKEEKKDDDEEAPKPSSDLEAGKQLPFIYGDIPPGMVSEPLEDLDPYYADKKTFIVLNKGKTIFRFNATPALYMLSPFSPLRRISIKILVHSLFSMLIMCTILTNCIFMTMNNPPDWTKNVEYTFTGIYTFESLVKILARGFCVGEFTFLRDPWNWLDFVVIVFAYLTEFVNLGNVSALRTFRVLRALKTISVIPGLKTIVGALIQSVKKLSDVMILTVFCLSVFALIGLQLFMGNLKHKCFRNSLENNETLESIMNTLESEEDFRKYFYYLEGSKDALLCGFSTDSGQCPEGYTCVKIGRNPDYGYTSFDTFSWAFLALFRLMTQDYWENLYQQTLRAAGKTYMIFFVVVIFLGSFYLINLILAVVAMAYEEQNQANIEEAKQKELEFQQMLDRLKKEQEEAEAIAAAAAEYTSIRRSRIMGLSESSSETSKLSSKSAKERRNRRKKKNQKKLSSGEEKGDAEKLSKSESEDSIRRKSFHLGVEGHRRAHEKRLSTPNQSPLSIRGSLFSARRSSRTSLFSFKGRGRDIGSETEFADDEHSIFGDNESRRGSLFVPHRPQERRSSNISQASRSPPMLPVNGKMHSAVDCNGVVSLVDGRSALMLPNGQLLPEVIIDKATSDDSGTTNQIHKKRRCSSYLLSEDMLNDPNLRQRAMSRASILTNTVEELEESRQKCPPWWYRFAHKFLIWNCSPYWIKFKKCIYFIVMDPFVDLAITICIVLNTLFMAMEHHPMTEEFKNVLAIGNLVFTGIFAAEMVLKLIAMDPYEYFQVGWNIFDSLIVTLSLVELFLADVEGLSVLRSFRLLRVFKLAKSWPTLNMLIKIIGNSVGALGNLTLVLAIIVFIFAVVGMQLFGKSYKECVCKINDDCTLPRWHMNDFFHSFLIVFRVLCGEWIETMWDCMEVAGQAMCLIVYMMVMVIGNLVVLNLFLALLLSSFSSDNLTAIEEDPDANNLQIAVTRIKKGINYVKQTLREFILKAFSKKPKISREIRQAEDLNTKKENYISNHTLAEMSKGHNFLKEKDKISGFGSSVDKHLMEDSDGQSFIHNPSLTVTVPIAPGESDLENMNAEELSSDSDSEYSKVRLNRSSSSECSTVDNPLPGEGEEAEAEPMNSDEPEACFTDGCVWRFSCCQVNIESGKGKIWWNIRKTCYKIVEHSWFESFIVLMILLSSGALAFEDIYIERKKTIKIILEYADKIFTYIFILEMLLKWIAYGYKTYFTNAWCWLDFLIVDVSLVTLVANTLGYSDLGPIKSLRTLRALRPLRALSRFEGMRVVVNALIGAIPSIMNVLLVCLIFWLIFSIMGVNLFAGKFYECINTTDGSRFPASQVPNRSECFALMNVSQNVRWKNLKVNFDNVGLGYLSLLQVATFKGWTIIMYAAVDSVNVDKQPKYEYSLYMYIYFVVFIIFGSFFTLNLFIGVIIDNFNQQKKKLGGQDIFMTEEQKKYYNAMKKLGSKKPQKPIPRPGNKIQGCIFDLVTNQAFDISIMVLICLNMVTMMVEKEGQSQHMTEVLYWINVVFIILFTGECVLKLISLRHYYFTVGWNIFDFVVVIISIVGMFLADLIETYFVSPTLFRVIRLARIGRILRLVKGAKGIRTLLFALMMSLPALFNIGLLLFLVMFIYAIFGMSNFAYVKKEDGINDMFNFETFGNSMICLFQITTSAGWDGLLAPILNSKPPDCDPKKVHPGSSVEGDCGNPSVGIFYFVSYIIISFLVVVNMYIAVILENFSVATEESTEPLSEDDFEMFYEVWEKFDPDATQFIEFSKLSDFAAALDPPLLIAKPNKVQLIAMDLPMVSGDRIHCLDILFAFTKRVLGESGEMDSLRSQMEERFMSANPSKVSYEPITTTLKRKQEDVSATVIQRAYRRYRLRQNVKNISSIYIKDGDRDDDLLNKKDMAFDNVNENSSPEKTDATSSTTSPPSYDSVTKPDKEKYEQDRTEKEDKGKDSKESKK

[5] = tested on: induced sensory neurons derived from fibroblasts; test: Cyquant cell viability assay; type: cell-based, human; details: day 1, 3, 5, 10; different concentrations of NT3
Experimental: The cell viability was quantitatively detected by Cyquant assay to compare the effects of different combinations of small molecule compounds on maintaining physiological states of cells during long-term culture of induced sensory neurons.
Cell plate coating was performed in a 96-well opaque cell culture plate according to the method in Example 4 (4.4.1). […] The cells were cultured in the sensory neuron cell induction medium of Example 3 with different concentrations of NT3, and the culture conditions were 37° C., 5% carbon dioxide, and the medium was half quantity changed every three days. The medium in the known method was used as a control group. Samples were taken at day 1, day 3, day 5 and day 10, respectively, and the cell viability detection was carried out by using CyQuant Kit (Invitrogen, X12223) according to the instruction manual, and date were read by SpectraMax i3 Multi-Mode Microplate Reader (VWR, ID3-STD).

Cc1cccc(-c2[nH]c(CNc3ccccc3F)nc2-c2ccc3ncnn3c2)n1 [TEW-7197]
formation of neuron precursor cells (neural plate structure) [1]: neuron precursor cells formed

O=S(=O)(O)CCN1CCN(CCO)CC1 [HEPES buffer, HEPES]
cell morphology ([2]; HEPES buffer 5 mM, 10 mM, 15 mM): morphologically normal
cell tolerance ([2]; high concentration (15 mM)): cell intolerance began to appear
osmotic pressure with increase of concentration ([3]; HEPES buffer in medium): increased linearly
osmotic pressure of the culture system ([3]; concentration more than 15 mM): > 320 mOsm/kg

CHIR98014
expression of SCN11A (Nav1.9) compared with the serum induction method [4]: significantly increased
expression of ion channel protein [4]: lower than normal level
expression of neuron marker Tuj [4]: lower than that at other concentrations

Cc1cccc(-c2nn3c(c2-c2ccnc4ccc(C(N)=O)cc24)CCC3)n1 [LY2157299]
expressions of SCN9A and SCN11A compared with the serum induction method ([4]; 7.5 μM and 25 μM): significantly increased
expression of various sodium ion channel proteins versus concentration ([4]; Q-PCR, different LY2157299 concentrations in induction medium): linear increase in concentration versus protein expression
ion channel protein expressions ([4]; concentrations of below 50 nM): significantly lower than normal levels
antagonism against PF-05089771 of the induced neurons (sodium ion channel 1.7; neurons induced by using LY2157299, 1 μM PF-05089771): more antagonism against PF-05089771
electrophysiological strength of sodium ion channels of induced cells (sodium ion channel 1.7): significantly improved
formation of neuron precursor cells (neural plate structure) [1]: neuron precursor cells formed

c1ccc2c(-c3cnn4cc(-c5ccc(N6CCNCC6)cc5)cnc34)ccnc2c1 [LDN193189]
induction of cell types with neural axons ([2]; 12 nM, 50 nM and 180 nM): cell types with neural axons can be induced
expression of Caspase3 relative to serum control group ([4]; LDN193189 180 nM or more): more than 1.5 times
expression of sodium ion channel 1.8 (SCN10A) ([4]; LDN193189 below 12 nM): lower than that in serum control

Cc1cccc(-c2[nH]c(C(C)(C)C)nc2-c2ccc3nccnc3c2)n1 [SB525334]
formation of neuron precursor cells (neural plate structure) [1]: neuron precursor cells formed

Cc1c[nH]c(/C=C2\C(=O)Nc3ccccc32)c1CCC(=O)O [SU5402]
axon formation [2]: could form axons
cell death marker CASP3 ([4]; SU5402 higher than 15 μM): significantly increased
expression of ion channel protein compared with serum induction method ([4]; SU5402 lower than 3 μM): lower than the control level
electrophysiological strength of sodium ion channels of induced cells (sodium ion channel 1.7): significantly improved

C[C@H](NC(=O)Cc1cc(F)cc(F)c1)C(=O)N[C@H](C(=O)OC(C)(C)C)c1ccccc1 [DAPT]
axon formation [2]: able to form axons
induced neuron cell markers and peripheral sensory neuron cell markers ([4]; DAPT lower than 3 μM): much lower than those in the serum control group
expression of neuron marker Tuj ([4]; DAPT more than 10 μM): increased
expression of sodium ion channel 1.8 (SCN10A) ([4]; DAPT more than 10 μM): decreased

Cc1cccc(-c2[nH]ncc2-c2ccc3ncccc3n2)n1 [RepSox]
formation of neuron precursor cells (neural plate structure) [1]: neuron precursor cells formed

B1: NT3: human-NT3 (Novoprotein, Cat. No. C079), added to sensory neuron cell medium (protein, UniProt P20783 139-257, looked up)
Neurotrophin-3: YAEHKSHRGEYSVCDSESLWVTDKSSAIDIRGHQVTVLGEIKTGNSPVKQYFYETRCKEARPVKNGCRGIDDKHWNSQCKTSQTYVRALTSENNKLVGWRWIRIDTSCVCALSRKIGRT
modifications: Neurotrophin-3
notes: human-NT3 (Novoprotein, Cat. No. C079), added to sensory neuron cell medium
in vitro viability of induced neurons in long-term culture vs serum induction method [5]: effectively increase the in vitro viability
